# Source: ChEMBL document CHEMBL5150071, “BAY-7081: A Potent, Selective, and Orally Bioavailable Cyanopyridone-Based PDE9A Inhibitor” (J Med Chem, 2022)
# Activity calls are given as the source filed them. The rule behind the calls is not given here.
# How the values were obtained:
# [1] = biological target: High affinity cGMP-specific 3',5'-cyclic phosphodiesterase 9A (Homo sapiens, UniProt O76083); assay: Inhibition of full length human PDE9A expressed in Sf9 insect cells using [3H]-cGMP as substrate incubated for 60 mins by microbeta scintillation counter analysis
# Homo sapiens [2] = species on record: Homo sapiens; assay: Selectivity index, ratio of IC50 for full length human PDE2A to IC50 for full length human PDE9A
# Homo sapiens [3] = species on record: Homo sapiens; assay: Selectivity index, ratio of IC50 for full length human PDE11A to IC50 for full length human PDE9A
# Homo sapiens [4] = species on record: Homo sapiens; assay: Selectivity index, ratio of IC50 for full length human PDE3B to IC50 for full length human PDE9A
# Homo sapiens [5] = species on record: Homo sapiens; assay: Selectivity index, ratio of IC50 for full length human PDE10A to IC50 for full length human PDE9A
# Homo sapiens [6] = species on record: Homo sapiens; assay: Selectivity index, ratio of IC50 for full length human PDE8A to IC50 for full length human PDE9A
# Homo sapiens [7] = species on record: Homo sapiens; assay: Selectivity index, ratio of IC50 for full length human PDE7B to IC50 for full length human PDE9A
# Homo sapiens [8] = species on record: Homo sapiens; assay: Selectivity index, ratio of IC50 for human platelet PDE5A to IC50 for full length human PDE9A
# [9] = Blood clearance in po or iv dosed Wistar rat measured over 24 hrs by LC-MS/MS analysis; format: ADME, organism-based; conditions: in vivo
# Homo sapiens [10] = species on record: Homo sapiens; assay: Selectivity index, ratio of IC50 for full length human PDE4B to IC50 for full length human PDE9A
# [11] = Drug metabolism in rat hepatocytes assessed as glucuronidation of cyclic lactam at 10 uM incubated for 4 hrs by LC-MS/MS analysis; format: ADME, cell-based, Hepatocyte
# [12] = Drug metabolism in cryopreserved human hepatocytes assessed as glucuronidation of cyclic lactam at 10 uM incubated for 4 hrs by LC-MS/MS analysis; format: ADME, cell-based, Hepatocyte
# [13] = Selectivity index, ratio of IC50 for bovine PDE6 to IC50 for full length human PDE11A
# [14] = Selectivity index, ratio of IC50 for bovine brain PDE1 to IC50 for full length human PDE9A
# [15] = Solubility of compound in PBS at pH 6.5 at 50 mg/ml incubated for 24 hrs by LC/MS/MS or HPLC analysis; format: physicochemical; conditions: buffer, pH 6.5, 24 h
# [16] = Drug metabolism in rat hepatocytes assessed as glucuronidation at 10 uM incubated for 30 mins by LC-MS/MS analysis; format: ADME, cell-based, Hepatocyte; conditions: 0.5 h
# [17] = biological target: T1, High affinity cGMP-specific 3',5'-cyclic phosphodiesterase 9A (Rattus norvegicus) (UniProt Q8QZV1); assay: Inhibition of rat PDE9A using [3H]-cGMP as substrate at 42 nM incubated for 60 mins by microbeta scintillation counter analysis relative to control
# T1 sequence (whole entry): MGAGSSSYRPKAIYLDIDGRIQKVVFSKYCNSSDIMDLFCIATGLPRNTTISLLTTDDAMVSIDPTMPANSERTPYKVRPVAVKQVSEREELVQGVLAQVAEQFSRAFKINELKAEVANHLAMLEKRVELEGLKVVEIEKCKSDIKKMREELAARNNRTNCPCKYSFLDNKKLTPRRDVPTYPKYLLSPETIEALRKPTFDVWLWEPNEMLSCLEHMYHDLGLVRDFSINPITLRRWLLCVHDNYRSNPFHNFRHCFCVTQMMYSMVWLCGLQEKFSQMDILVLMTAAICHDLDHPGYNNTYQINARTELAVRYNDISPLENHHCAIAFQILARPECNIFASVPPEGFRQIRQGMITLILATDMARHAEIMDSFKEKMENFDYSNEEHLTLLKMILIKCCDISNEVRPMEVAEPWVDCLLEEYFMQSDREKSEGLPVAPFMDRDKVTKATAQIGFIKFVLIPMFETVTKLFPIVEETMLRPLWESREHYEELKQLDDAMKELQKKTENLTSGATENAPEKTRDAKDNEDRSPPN
# Rattus norvegicus [18] = assay: In vivo inhibition of PDE9A in Sprague-Dawley rat assessed as increase in cGMP level in urine at 40 mg/kg, po measured after 85 mins by ELISA; format: functional, organism-based
# [19] = Selectivity index, ratio of IC50 for bovine PDE6 to IC50 for full length human PDE9A
# [20] = biological target: T2, High affinity cGMP-specific 3',5'-cyclic phosphodiesterase 9A (Mus musculus) (UniProt O70628); assay: Inhibition of mouse PDE9A using [3H]-cGMP as substrate at 34 nM incubated for 60 mins by microbeta scintillation counter analysis relative to control
# T2 sequence (whole entry): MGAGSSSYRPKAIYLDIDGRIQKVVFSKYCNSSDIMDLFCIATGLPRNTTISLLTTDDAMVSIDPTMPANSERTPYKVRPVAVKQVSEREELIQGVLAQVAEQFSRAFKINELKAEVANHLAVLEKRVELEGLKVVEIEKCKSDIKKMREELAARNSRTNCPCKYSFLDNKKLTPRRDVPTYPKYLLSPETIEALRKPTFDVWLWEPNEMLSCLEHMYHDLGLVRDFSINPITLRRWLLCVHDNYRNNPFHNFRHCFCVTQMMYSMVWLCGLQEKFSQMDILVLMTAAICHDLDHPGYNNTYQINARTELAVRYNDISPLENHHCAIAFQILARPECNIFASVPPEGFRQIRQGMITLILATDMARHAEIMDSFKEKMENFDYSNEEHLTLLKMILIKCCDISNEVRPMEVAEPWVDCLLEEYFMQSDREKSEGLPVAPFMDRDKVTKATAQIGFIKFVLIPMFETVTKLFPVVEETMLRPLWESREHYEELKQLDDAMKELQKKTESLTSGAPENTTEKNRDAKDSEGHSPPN
# [21] = Oral bioavailability in Wistar rat at 1 mg/kg measured over 24 hrs by LC-MS/MS analysis; format: ADME, organism-based; conditions: Wistar, in vivo
# Mus musculus [22] = assay: In vivo inhibition of PDE9A in mouse myocardial hypertrophy model with transverse aortic constriction assessed as reduction in minimal diastolic left ventricular pressure at 10 mg/kg administered twice daily for 5 weeks; format: functional, organism-based
# [23] = Volume of distribution at steady state in dog at 1 mg/kg, po or 0.3 mg/kg, iv measured over 24 hrs by LC-MS/MS analysis; format: ADME, organism-based, Canis lupus familiaris; conditions: in vivo
# [24] = MRT in Wistar rat at 0.3 mg/kg, iv measured over 24 hrs by LC-MS/MS analysis; format: ADME, organism-based; conditions: in vivo
# [25] = Blood clearance in Wistar rat at 1 mg/kg, po or 0.3 mg/kg, iv measured over 24 hrs by LC-MS/MS analysis; format: ADME, organism-based; conditions: in vivo
# [26] = Oral bioavailability in dog at 1 mg/kg measured over 24 hrs by LC-MS/MS analysis; format: ADME, organism-based, Canis lupus familiaris; conditions: in vivo
# [27] = Toxicity in rat assessed as increase in blood pressure at 10 to 50 mg/kg, po administered twice daily via gavage and measured every 5 mins by telemetry system based analysis; format: organism-based; conditions: in vivo, dose 10-50 mg/kg
# Rattus norvegicus [28] = assay: In vivo inhibition of PDE9A in Sprague-Dawley rat assessed as increase in cGMP level in urine at 10 to 50 mg/kg, po measured after 85 mins by ELISA; format: functional, organism-based; conditions: dose 10-50 mg/kg
# [29] = Volume of distribution at steady state in Wistar rat at 1 mg/kg, po or 0.3 mg/kg, iv measured over 24 hrs by LC-MS/MS analysis; format: ADME, organism-based; conditions: in vivo
# Mus musculus [30] = assay: In vivo inhibition of PDE9A in mouse myocardial hypertrophy model with transverse aortic constriction assessed as improvement of heart function at 10 mg/kg administered twice daily for 5 weeks; format: functional, organism-based
# Mus musculus [31] = assay: In vivo inhibition of PDE9A in mouse myocardial hypertrophy model with transverse aortic constriction assessed as reduction of hypertrophy of the left atrium at 10 mg/kg administered twice daily for 5 weeks; format: functional, organism-based
# [32] = MRT in dog at 0.3 mg/kg, iv measured over 24 hrs by LC-MS/MS analysis; format: ADME, organism-based, Canis lupus familiaris; conditions: in vivo
# [33] = Blood clearance in dog at 1 mg/kg, po or 0.3 mg/kg, iv measured over 24 hrs by LC-MS/MS analysis; format: ADME, organism-based, Canis lupus familiaris; conditions: in vivo
# [34] = Toxicity in rat assessed as increase in heart rate at 10 to 50 mg/kg, po administered twice daily via gavage and measured every 5 mins by telemetry system based analysis; format: organism-based; conditions: in vivo, dose 10-50 mg/kg
# Sequence of High affinity cGMP-specific 3',5'-cyclic phosphodiesterase 9A (O76083 whole entry): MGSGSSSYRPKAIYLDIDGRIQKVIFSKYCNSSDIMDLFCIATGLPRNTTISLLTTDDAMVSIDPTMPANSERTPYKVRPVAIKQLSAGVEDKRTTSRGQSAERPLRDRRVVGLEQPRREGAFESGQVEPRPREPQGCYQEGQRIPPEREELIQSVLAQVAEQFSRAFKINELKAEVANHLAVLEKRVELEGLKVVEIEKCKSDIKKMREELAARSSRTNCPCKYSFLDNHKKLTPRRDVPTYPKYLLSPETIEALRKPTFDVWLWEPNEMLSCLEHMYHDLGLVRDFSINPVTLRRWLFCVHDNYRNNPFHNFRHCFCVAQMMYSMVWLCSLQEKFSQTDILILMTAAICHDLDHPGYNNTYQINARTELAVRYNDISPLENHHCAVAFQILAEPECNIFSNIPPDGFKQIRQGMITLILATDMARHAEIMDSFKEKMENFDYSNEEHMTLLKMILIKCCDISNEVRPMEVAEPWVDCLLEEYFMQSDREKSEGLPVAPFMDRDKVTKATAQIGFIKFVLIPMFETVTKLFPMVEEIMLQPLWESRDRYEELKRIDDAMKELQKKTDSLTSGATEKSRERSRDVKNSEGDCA
compound,measurement,setting,value
CCc1ccnc2c(N3CCC(C)(C)CC3)c(C#N)c(=O)[nH]c12,IC50,[1],610 nM
Cc1ccc(-c2c(C#N)c(=O)[nH]c3cccnc23)cc1,IC50,[1],725 nM
CCCC1CNCc2c1[nH]c(=O)c(C#N)c2N1CCC(C)(C)CC1.Cl (configuration not stated),Ratio IC50,Homo sapiens [2],> 100
same,Ratio IC50,Homo sapiens [3],> 100
same,Ratio IC50,Homo sapiens [4],> 100
same,Ratio IC50,Homo sapiens [5],> 100
same,Ratio IC50,Homo sapiens [6],> 100
same,Ratio IC50,Homo sapiens [7],> 100
same,Ratio IC50,Homo sapiens [8],> 100
same,CL,[9],46.7 mL/min/kg
CC1(C)CCN(c2c(C#N)c(=O)[nH]c3cccnc23)CC1,IC50,[1],330 nM
CCCC1CNCc2c1[nH]c(=O)c(C#N)c2-c1ccc(C)cc1.Cl (configuration not stated),Ratio IC50,Homo sapiens [10],> 100
same,Drug metabolism,[11],Metabolite_Detected
same,Ratio IC50,Homo sapiens [2],> 100
same,Ratio IC50,Homo sapiens [3],> 100
same,Drug metabolism,[12],Metabolite_Detected
same,Ratio IC50,Homo sapiens [4],> 100
same,Ratio IC50,Homo sapiens [5],> 100
same,Ratio IC50,Homo sapiens [6],> 100
same,Ratio IC50,Homo sapiens [7],> 100
same,Ratio IC50,Homo sapiens [8],> 100
same,CL,[9],60 mL/min/kg
CCCC1CCCc2c1[nH]c(=O)c(C#N)c2-c1ccc(C)cc1 (configuration not stated),Ratio IC50,Homo sapiens [10],69
same,Ratio IC50,Homo sapiens [2],69
same,Ratio IC50,Homo sapiens [3],69
same,Ratio IC50,Homo sapiens [4],69
same,Ratio IC50,Homo sapiens [5],69
same,Ratio IC50,Homo sapiens [6],69
same,Ratio IC50,Homo sapiens [7],69
same,Ratio IC50,Homo sapiens [8],69
Cc1ccc(-c2c3c([nH]c(=O)c2C#N)CCCC3)cc1,Ratio IC50,[13],17
CCCC1CNCc2c1[nH]c(=O)c(C#N)c2N1CCC2(CC2)C(F)(F)C1 (racemic),Ratio IC50,[14],9
same,IC50,[1],100 nM
Cc1ccc(-c2c3c([nH]c(=O)c2C#N)C(C)CCC3)cc1 (racemic),Ratio IC50,[14],3
same,solubility,[15],9 µg/mL
same,IC50,[1],310 nM
CCCC1CCCc2c(-c3ccc(C)cc3)nc(=O)[nH]c21 (racemic),IC50,[1],13400 nM
Cc1ccc(-c2c3c([nH]c(=O)c2C#N)C(C(C)C)CNC3)cc1.Cl (racemic),Drug metabolism,[16],Metabolite_Detected
COCC1CCCc2c1[nH]c(=O)c(C#N)c2-c1ccc(C)cc1 (racemic),Drug metabolism,[16],Metabolite_Detected
CCCCC1CCCc2c1[nH]c(=O)c(C#N)c2-c1ccc(C)cc1 (racemic),IC50,[1],35 nM
CCCC1CNCc2c1[nH]c(=O)c(C#N)c2N1CCC(C)CC1 (racemic),IC50,[1],200 nM
CCCC1CNCc2c1[nH]c(=O)c(C#N)c2N1CCC2(CCOC2)CC1 (racemic),Ratio IC50,[14],12
same,IC50,[1],13 nM
CCCC1CNCc2c1[nH]c(=O)c(C#N)c2N1CCC2(CC1)CC2(F)F (racemic),Ratio IC50,[14],30
CCCC1CNCc2c1[nH]c(=O)c(C#N)c2N1CCC2(CC1)CC2 (stereo in doubt; form 1),IC50,[1],> 10000 nM
CCCC1CNCc2c1[nH]c(=O)c(C#N)c2N1CCC2(CC1)CC2 (stereo in doubt; form 2),inhibition,[17],50%
same,Ratio IC50,Homo sapiens [10],238
same,Ratio IC50,[14],49
same,Ratio IC50,Homo sapiens [2],> 650
same,Ratio IC50,Homo sapiens [3],430
same,Ratio IC50,Homo sapiens [4],> 650
same,Ratio IC50,Homo sapiens [5],> 650
same,inhibition,Rattus norvegicus [18],Active
same,Ratio IC50,Homo sapiens [6],97
same,Ratio IC50,[19],101
same,Ratio IC50,Homo sapiens [7],> 650
same,Ratio IC50,Homo sapiens [8],143
same,inhibition,[20],50%
C[C@@H]1CN(Cc2ncccn2)C[C@H]1c1nc2c(cnn2C2CCOCC2)c(=O)[nH]1 [EDELINONTRINE],bioavailability,[21],41%
same,inhibition,Mus musculus [22],Active
same,Vdss,[23],1.5 L/kg
same,MRT,[24],0.8 h
same,CL,[25],50 mL/min/kg
same,F,[26],38%
same,Activity,[27],Non-Toxic
same,inhibition,Rattus norvegicus [28],Active
same,Vdss,[29],2.2 L/kg
same,inhibition,Mus musculus [30],Active
same,inhibition,Mus musculus [31],Active
same,MRT,[32],3.1 h
same,CL,[33],8.3 mL/min/kg
same,Activity,[34],Non-Toxic
